Results: patent publication US9284300B2, “Pyridazinone derivatives” (Merck Patent GmbH, priority 2007, dated 2016)

How the values were obtained:
Met kinase [1] = molecular target: T1, Met kinase (Homo sapiens, UniProt P08581); test: Met kinase inhibition, cell assay; assay type: cell-based
Target sequence in this assay (P08581 25-1390): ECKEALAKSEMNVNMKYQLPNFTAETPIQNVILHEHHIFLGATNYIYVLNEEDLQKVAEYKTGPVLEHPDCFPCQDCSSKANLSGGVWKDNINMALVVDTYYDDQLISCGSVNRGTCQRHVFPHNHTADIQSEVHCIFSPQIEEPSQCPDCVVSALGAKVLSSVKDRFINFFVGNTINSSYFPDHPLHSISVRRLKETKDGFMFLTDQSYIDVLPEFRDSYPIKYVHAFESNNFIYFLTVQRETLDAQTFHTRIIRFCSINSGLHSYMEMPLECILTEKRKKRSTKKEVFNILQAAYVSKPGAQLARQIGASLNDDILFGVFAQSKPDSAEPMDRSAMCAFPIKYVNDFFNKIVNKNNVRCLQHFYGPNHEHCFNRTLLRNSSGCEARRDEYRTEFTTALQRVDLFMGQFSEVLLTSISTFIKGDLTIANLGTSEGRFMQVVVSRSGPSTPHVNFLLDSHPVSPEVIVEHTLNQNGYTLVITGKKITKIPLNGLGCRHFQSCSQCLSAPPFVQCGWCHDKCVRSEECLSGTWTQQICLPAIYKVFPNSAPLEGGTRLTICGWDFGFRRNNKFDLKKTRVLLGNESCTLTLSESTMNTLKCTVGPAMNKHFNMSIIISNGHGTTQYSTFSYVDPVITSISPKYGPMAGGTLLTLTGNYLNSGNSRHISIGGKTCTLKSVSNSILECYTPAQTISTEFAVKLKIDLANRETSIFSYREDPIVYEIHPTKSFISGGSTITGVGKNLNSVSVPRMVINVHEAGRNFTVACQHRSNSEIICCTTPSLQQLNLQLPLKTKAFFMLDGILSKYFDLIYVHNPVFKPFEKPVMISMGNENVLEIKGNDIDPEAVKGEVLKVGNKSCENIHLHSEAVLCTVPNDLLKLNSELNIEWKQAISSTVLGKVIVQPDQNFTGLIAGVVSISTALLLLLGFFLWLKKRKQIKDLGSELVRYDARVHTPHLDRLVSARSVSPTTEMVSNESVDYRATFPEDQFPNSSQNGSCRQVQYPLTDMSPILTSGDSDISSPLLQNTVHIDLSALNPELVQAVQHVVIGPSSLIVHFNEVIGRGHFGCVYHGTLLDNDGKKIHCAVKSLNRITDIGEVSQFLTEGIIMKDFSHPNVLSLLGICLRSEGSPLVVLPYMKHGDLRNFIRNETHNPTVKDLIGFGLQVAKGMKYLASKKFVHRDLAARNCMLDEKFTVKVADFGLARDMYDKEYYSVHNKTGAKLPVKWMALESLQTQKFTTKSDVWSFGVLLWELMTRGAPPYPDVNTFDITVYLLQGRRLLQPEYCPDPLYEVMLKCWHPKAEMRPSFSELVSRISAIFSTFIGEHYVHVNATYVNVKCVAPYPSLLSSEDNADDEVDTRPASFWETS

Met kinase [2] = molecular target: T1, Met kinase; test: Flashplate method (Met kinase); assay type: biochemical; parameters: 6His (N); purchased Upstate 14-526; host or cells: Sf21 insect cells (S. frugiperda), baculovirus; conditions: Met kinase inhibition, enzyme assay
Experimental: The test plates used are 96-well Flashplate^R microtitre plates from Perkin Elmer (Cat. No. SMP200).
The full value used is the inhibitor-free kinase reaction. This should be approximately in the range 6000-9000 cpm. The pharmacological zero value used is staurosporin in a final concentration of 0.1 mM. The inhibitory values (IC50) are determined using the RS1_MTS program.
Kinase reaction conditions per well: • 30 μl of assay buffer • 10 μl of substance to be tested in assay buffer with 10% of DMSO • 10 μl of ATP (final concentration 1 μM cold, 0.35 μCi of ^33P-ATP) • 50 μl of Met kinase/substrate mixture in assay buffer; (10 ng of enzyme/well, 50 ng of pAGLT/well)
Target sequence in this assay (P08581 974-1390 limits assumed): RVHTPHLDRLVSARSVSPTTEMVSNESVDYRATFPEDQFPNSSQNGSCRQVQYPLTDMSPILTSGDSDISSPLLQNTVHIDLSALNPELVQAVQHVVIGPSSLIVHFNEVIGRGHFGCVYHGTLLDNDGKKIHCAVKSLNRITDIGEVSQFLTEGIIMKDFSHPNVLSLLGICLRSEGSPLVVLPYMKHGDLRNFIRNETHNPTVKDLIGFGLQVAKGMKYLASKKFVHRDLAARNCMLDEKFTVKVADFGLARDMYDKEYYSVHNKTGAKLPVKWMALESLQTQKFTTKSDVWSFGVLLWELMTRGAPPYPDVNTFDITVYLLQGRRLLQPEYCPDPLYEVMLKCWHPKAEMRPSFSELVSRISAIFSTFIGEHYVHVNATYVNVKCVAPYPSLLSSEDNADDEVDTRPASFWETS

TPR-Met/NIH3T3 cells = test: In-vivo tests: tumour volume, TPR-Met/NIH3T3 cells injected subcutaneously in Balb/C mice; conditions: female Balb/C mice, s.c. TPR-Met/NIH3T3 tumour, 200 mg/kg daily by gastric tube, 9 days
Experimental: They were acclimatised to our keeping conditions for 7 days. Each mouse was subsequently injected subcutaneously in the pelvic area with 4 million TPR-Met/NIH3T3 cells in 100 μl of PBS (without Ca++ and Mg++).

Structure (SMILES) | IC50 (Met kinase [1]) [nM] | IC50 (Met kinase [2]) [nM] | antitumoural action (tumour volume) (TPR-Met/NIH3T3 cells)
Cc1cnc(-c2cccc(Cn3nc(-c4cc(F)c(F)c(F)c4)ccc3=O)c2)nc1 [A1, 2-[3-(5-methylpyrimidin-2-yl)benzyl]-6-(3,4,5-trifluorophenyl)-2H-pyridazin-3-one] | 1 to 1000 | 1 to 1000 | –
O=C1OCCCN1c1cccc(Cn2nc(-c3cc(F)cc(F)c3)ccc2=O)c1 [A6, 3-{3-[3-(3,5-difluorophenyl)-6-oxo-6H-pyridazin-1-ylmethyl]phenyl}-1,3-oxazinan-2-one] | – | 1 to 1000 | –
Cc1ccc(=O)n(-c2cccc(Cn3nc(-c4cc(F)cc(F)c4)ccc3=O)c2)n1 [A8, 1-{3-[3-(3,5-difluorophenyl)-6-oxo-6H-pyridazin-1-yl-methyl]phenyl}-3-methyl-6H-pyridazin-6-one] | – | 1 to 1000 | –
O=c1ccc(-c2cc(F)cc(F)c2)nn1Cc1cccc(-c2nccc(N3CCNCC3)n2)c1 [A13, 6-(3,5-difluorophenyl)-2-[3-(4-piperazin-1-ylpyrimidin-2-yl)benzyl]-2H-pyridazin-3-one] | 1000 to 10000 | – | –
Cc1cnc(-c2cccc(Cn3nc(-c4cccc(C#N)c4)ccc3=O)c2)nc1 [A15, 3-{1-[3-(5-methylpyrimidin-2-yl)benzyl]-6-oxo-1,6-dihydropyridazin-3-yl}benzonitrile] | 1 to 1000 | – | –
CN(C)C=Nc1cnc(-c2cccc(Cn3nc(-c4cc(F)cc(F)c4)ccc3=O)c2)nc1 [A16, N′-(2-{3-[3-(3,5-difluorophenyl)-6-oxo-6H-pyridazin-1-ylmethyl]phenyl}-pyrimidin-5-yl)-N,N-dimethylformamidine] | 1 to 1000 | – | –
Nc1cnc(-c2cccc(Cn3nc(-c4cc(F)cc(F)c4)ccc3=O)c2)nc1 [A17, 2-[3-(5-aminopyrimidin-2-yl)benzyl]-6-(3,5-difluorophenyl)-2H-pyridazin-3-one] | 1 to 1000 | – | –
O=c1ccc(-c2cc(F)cc(F)c2)nn1Cc1cccc(-c2ncc(N3CCNCC3)cn2)c1 [A19, 6-(3,5-difluorophenyl)-2-[3-(5-piperazin-1-ylpyrimidin-2-yl)benzyl]-2H-pyridazin-3-one] | 1 to 1000 | – | –
O=c1ccc(-c2cc(F)cc(F)c2)nn1Cc1cccc(-c2ncc(Br)cn2)c1 [A25, 2-[3-(5-bromopyrimidin-2-yl)benzyl]-6-(3,5-difluorophenyl)-2H-pyridazin-3-one] | 1 to 1000 | – | –
CN(C)CCCCNC(=O)c1cnc(-c2cccc(Cn3nc(-c4cc(F)c(F)c(F)c4)ccc3=O)c2)nc1 [A35] | 1 to 1000 | – | –
O=c1ccc(-c2cc(F)cc(F)c2)nn1Cc1cccc(-c2ncc(-c3cnn(C4CCNCC4)c3)cn2)c1 [A63] | 1 to 1000 | – | –
CN(C)CCOc1cnc(-c2cccc(Cn3nc(-c4cc(F)cc(F)c4)ccc3=O)c2)nc1 [A64, 2-{3-[5-(2-dimethylaminoethoxy)pyrimidin-2-yl]benzyl}-6-(3,5-difluorophenyl)-2H-pyridazin-3-one] | 1 to 1000 | – | –
Cc1cnc(-c2cccc(Cn3nc(-c4ccc5nsnc5c4)ccc3=O)c2)nc1 [A79] | 1 to 1000 | – | –
N#Cc1cccc(-c2ccc(=O)n(Cc3cccc(-c4ncc(-c5cnn(CCN6CCCC6)c5)cn4)c3)n2)c1 [A168, 3-[6-oxo-1-(3-{5-[1-(2-pyrrolidin-1-ylethyl)-1H-pyrazol-4-yl]pyrimidin-2-yl}benzyl)-1,6-dihydropyridazin-3-yl]-benzonitrile] | 1 to 1000 | – | –
N#Cc1cccc(-c2ccc(=O)n(Cc3cccc(-c4ncc(N5CCNCC5)cn4)c3)n2)c1 [A288, 3-{6-oxo-1-[3-(5-piperazin-1-ylpyrimidin-2-yl)benzyl]-1,6-dihydropyridazin-3-yl}benzonitrile] | 1 to 1000 | – | –

Second part, led by results:

IC50 (Met kinase [1]) [nM] | IC50 (Met kinase [2]) [nM] | Structure (SMILES) | antitumoural action (tumour volume) (TPR-Met/NIH3T3 cells)
1 to 1000 | – | CN1CCN(Cc2cnc(-c3cccc(Cn4nc(-c5cc(F)cc(F)c5)ccc4=O)c3)nc2)CC1 [A14, 6-(3,5-difluorophenyl)-2-{3-[5-(4-methylpiperazin-1-yl-methyl)pyrimidin-2-yl]benzyl}-2H-pyridazin-3-one] | –
1 to 1000 | – | CN1CCN(c2cnc(-c3cccc(Cn4nc(-c5cc(F)cc(F)c5)ccc4=O)c3)nc2)CC1 [A18, 6-(3,5-difluorophenyl)-2-{3-[5-(4-methylpiperazin-1-yl)pyrimidin-2-yl]-benzyl}-2H-pyridazin-3-one] | significant antitumoural action
1 to 1000 | – | CN1CCN(c2cnc(-c3cccc(Cn4nc(-c5cc(F)c(F)c(F)c5)ccc4=O)c3)nc2)CC1 [A20, 2-{3-[5-(4-methylpiperazin-1-yl)pyrimidin-2-yl]benzyl}-6-(3,4,5-trifluorophenyl)-2H-pyridazin-3-one] | –
1 to 1000 | – | CN1CCC(Oc2cnc(-c3cccc(Cn4nc(-c5cc(F)cc(F)c5)ccc4=O)c3)nc2)CC1 [A23, 6-(3,5-difluorophenyl)-2-{3-[5-(1-methylpiperidin-4-yloxy)pyrimidin-2-yl]benzyl}-2H-pyridazin-3-one] | –
1 to 1000 | – | Cn1cc(-c2cnc(-c3cccc(Cn4nc(-c5cc(F)cc(F)c5)ccc4=O)c3)nc2)cn1 [A26, 6-(3,5-difluorophenyl)-2-{3-[5-(1-methyl-1H-pyrazol-4-yl)pyrimidin-2-yl]benzyl}-2H-pyridazin-3-one] | –
1 to 1000 | – | CN1CCN(CCOc2cnc(-c3cccc(Cn4nc(-c5cc(F)cc(F)c5)ccc4=O)c3)nc2)CC1 [A57] | –
1 to 1000 | – | CN1CCC(COc2cnc(-c3cccc(Cn4nc(-c5cc(F)cc(F)c5)ccc4=O)c3)nc2)CC1 [A66] | –
1 to 1000 | – | O=c1ccc(-c2cc(F)cc(F)c2)nn1Cc1cccc(-c2ncc(OC3CCNCC3)cn2)c1 [A102, 6-(3,5-difluorophenyl)-2-{3-[5-(piperidin-4-yloxy)pyrimidin-2-yl]benzyl}-2H-pyridazin-3-one] | –
1 to 1000 | – | Cn1cc(-c2ccc(=O)n(Cc3cccc(-c4ncc(-c5cnn(CCN6CCCC6)c5)cn4)c3)n2)cn1 [A169] | –
1 to 1000 | – | CN(C)CCCOc1cnc(-c2cccc(Cn3nc(-c4cnn(C)c4)ccc3=O)c2)nc1 [A209, 2-{3-[5-(3-dimethylaminopropoxy)pyrimidin-2-yl]-benzyl}-6-(1-methyl-1H-pyrazol-4-yl)-2H-pyridazin-3-one] | –
1 to 1000 | – | CN1CCC(Oc2cnc(-c3cccc(Cn4nc(-c5cnn(C)c5)ccc4=O)c3)nc2)CC1 [A226, 2-{3-[5-(1-methylpiperidin-4-yloxy)pyrimidin-2-yl]-benzyl}-6-(1-methyl-1H-pyrazol-4-yl)-2H-pyridazin-3-one] | –
1 to 1000 | – | CN1CCC(COc2cnc(-c3cccc(Cn4nc(-c5cnn(C)c5)ccc4=O)c3)nc2)CC1 [A237, 2-{3-[5-(1-methylpiperidin-4-ylmethoxy)pyrimidin-2-yl]-benzyl}-6-(1-methyl-1H-pyrazol-4-yl)-2H-pyridazin-3-one] | –
1 to 1000 | – | CN1CCN(c2cnc(-c3cccc(Cn4nc(-c5cccc(C#N)c5)ccc4=O)c3)nc2)CC1 [A287, 3-(1-{3-[5-(4-methylpiperazin-1-yl)pyrimidin-2-yl]benzyl}-6-oxo-1,6-dihydropyridazin-3-yl)benzonitrile] | –
